For this assay, the system named is patients with SYNGAP1. Description: Four patients with SYNGAP1 in Study ZYN2-CL-025 (BELIEVE). Format: in vivo, human. As to conditions: SYNGAP1 encephalopathy patients; across the 26-week treatment period; transdermal. The text has this:
The trial summarized in the examples—a Phase 2 open label clinical trial—assessed the safety and efficacy of transdermal administration of CBD in a heterogeneous group of SYNGAP1 encephalopathy and other rare developmental and epileptic encephalopathies (DEEs), including but not limited to Dravet Syndrome (DS) and Lennox-Gastaut Syndrome (LGS). Some of the most common and debilitating SYNGAP1 encephalopathy seizure types are focal impaired-awareness and convulsive seizures. Patients with SYNGAP1 encephalopathy who experienced these seizure types, such as SYNGAP1 seizures, experienced seizure reductions of up to 73% across the 26-week treatment period. Qualitative assessments by caregivers in the study indicate improved behavioral problems including improved mood, engagement with others, learning ability, alertness, school attendance, as well as cognitive symptoms.
This was a sequential, multi-stage, open-label, multi-national, multiple-center, multiple-dose study to assess the long-term safety and tolerability of ZYN002 (transdermal CBD gel) in child and adolescent epilepsy patients from 3 to 18 years of age having seizures associated with developmental and epileptic encephalopathies (DEE) according to the International League Against Epilepsy (ILEA) classification (Scheffer et al. 2017). […]

On to `C=C(C)C1CCC(C)=CC1c1c(O)cc(CCCCC)cc1O` (stereo not shown) [CBD, 2-[3-methyl-6-(1-methylethenyl)-2-cyclohexen-1-yl]-5-pentyl-1,3-benzenediol], for which the seizure reductions result is recorded as “up to 73%”.

The record behind these values is patent US20250339450A1, “TREATMENT OF SYNGAP1 ENCEPHALOPATHY” (Harmony Biosciences Management, Inc., priority 2019, published 2025).
